Source: patent EP0194794A2, “Saccharide digestion inhibiting composition” (Takeda Chemical Industries, Ltd., priority 1985, dated 1986)
Marks after values point to notes of the source that are not given here.

Experiments:
[1] = Property of feces in rats fed test ration, single organism (Reference Example 1); assay type: in vivo, male Jcl:SD rats; details: 36 to 48 hours
Method: One gram of the mixture prepared in Example 1 and one gram of cells of lactic acid producing bacteria of a kind different from the bacteria used in Example 1 were mixed with 99 g of commercial powder feed (CE-2) to give a test ration. This ration was given to male Jcl:SD rats aged 7 weeks (6 animals per group) and the property of feces excreted after 36 to 48 hours was examined. Control animals received a mixture of 10 mg of AO-128 and 100 g of 'powder feed.

[2] = Property of feces in rats fed test ration, 2 or more bacteria (Reference Example 2); assay type: in vivo, Jcl:SD rats; details: 36 to 48 hours
Method: Using 2 or more different bacteria, test rations were prepared by the same procedure as Reference Example 1. However, the amount of potato starch was reduced to adjust for the volume increase due to the cells to provide a composition containing cells of AO-128 and the composition was mixed with feed. The resulting ration was given to 7-week-old Jcl:SD rats (5 animals per group) and the property of feces after 36 to 48 hours was observed. Control rats received a mixture of 10 mg of AO-128 and 100 g of powder feed.

[3] = Influence on dietary hyperglycemia and hyperinsulinemia (Reference Example 3); assay type: in vivo, male Jcl:SD rats; details: mean ± SD, n=6
Method: The rations prepared in the same manner as Reference Example 1 were given to 8-week-old male Jcl:SD rats (6 individuals per group) which had not been fed for 24 hours to investigate how the administration of lactic acid producing bacteria would influence the inhibitory effect of AO-128 on the hyperglycemia and hyperinsuleinemia following a diet intake.
Blood samples were collected from the tail vein immediately before feeding and 30, 60 and 120 minutes after feeding and the plasma glucose and insulin levels were determined.

[4] = 28-day feeding of rats with Zucker obesity (Reference Example 4); assay type: in vivo, male rats with Zucker obesity; details: ration fed for 28 days
Method: In the analysis for body fat, the liver, the adipose tissue of the epididymis, the digestive tract and its contents were removed and the remainder was used as a sample. The rations containing the bacterial cells were prepared every other day and fed.

Acute toxicity study = assay type: in vivo, rats; details: oral administration, 10 g/kg body weight
From the text: When this was mixed with 10^11 cells of any of the 3 different lactic acid producing bacteria used in the present invention and the mixture was orally administered at the same time as AO-128 (10 g/kg body weight), no influence was observed.

OCC(CO)N[C@H]1C[C@](O)(CO)[C@@H](O)[C@H](O)[C@H]1O [AO-128, N-(1,3-Dihydroxy-2-propyl)valiolamine]
Property of feces ± ([1]; number of rats (6 per group) with fecal masses, a diffusion of water noted on filter paper): 0 | Property of feces - ([1]; number of rats (6 per group) with fecal masses, no diffusion of water on filter paper): 0 | Property of feces + ([1]; number of rats (6 per group) with feces unformed (watery stool)): 6 | Property of feces ± ([2]; number of rats (5 per group) with fecal masses, diffusion of water on filter paper): 2 | Property of feces - ([2]; number of rats (5 per group) with fecal masses, no diffusion of water on filter paper): 0 | Property of feces + ([2]; number of rats (5 per group) with feces unformed (watery stool)): 3 | Plasma glucose level 30 min. ([3]; 30 minutes after feeding): 141± 8^a mg/dl | Plasma glucose level 60 min. ([3]; 60 minutes after feeding): 154±11^a mg/dl | Plasma glucose level 120 min. ([3]; 120 minutes after feeding): 152±11^a mg/dl | Plasma glucose level 0 min. ([3]; immediately before feeding, rats not fed for 24 hours): 101 ± 10 mg/dL | diarrhea ([4]; animals with diarrhea / animals in group): 6/6 | body fat ([4]; carcass without liver, epididymal adipose tissue, digestive tract, n=6): 19.8±5.4^b % | body weight gain ([4]; mean ± SD, n=6): 132±28^a g/28day | food consumption ([4]; mean ± SD, n=6): 602±56^a g/28day | food conversion ([4]; mean ± SD, n=6): 21.9±3.6^b % | death in acute toxicity study (Acute toxicity study): caused no death
